Consider 1 substance from paper PMC5039417, “Aberrant Glycosylation of Anchor-Optimized MUC1 Peptides Can Enhance Antigen Binding Affinity and Reverse Tolerance to Cytotoxic T Lymphocytes” (Biomolecules, 2016).

For assay [1], the system named is CD8+ T cells from HLA-A*0201 breast cancer patients. The assay can be described thus: 3H-thymidine proliferation of T cells from breast cancer patients. It counts as cell-based, human. The conditions noted are these: 23 HLA-A*0201 breast cancer patients, DCs pulsed with 10 μg/mL peptide + IL-2, 5 days, vs no-peptide stimulated T cells. How it is done:
CD8^+ T cells from the patients were incubated with irradiated autologous DCs pulsed with the various MUC1 peptides (10 μg/mL) plus IL-2 for 5 days and proliferation was assessed by measuring the ^3H-thymidine uptake. T cells from ~38% of the breast cancer patients responded to the selected MUC1 peptides (Figure 6).
Figure 6 T cells from ~38% of the HLA-A2^+ breast cancer patients regardless of their stage, ER/PR and HER2 status responded to the selected MUC1 peptides. 1 × 10^5 T cells were incubated with irradiated […] DCs pulsed with the various MUC1 peptides (10 μg/mL) + IL-2 for 5 days in complete media. Proliferation was assessed by measuring the ^3H-thymidine uptake and is reported as fold increase in counts per minute. The dotted line indicates the two-fold increase in proliferation.

For a further assay, the target named is HLA-A*0201 molecules (Homo sapiens, UniProt P04439, D140Y/D185E/D98H/E176V/E277Q/G131W/G231S/I119V/I121R/I166T/I218V/L300P/L318F/N151K/N90K/P208A/P217A/Q86G/Q94H/R138H/R169H/T345S). Put plainly: Competitive peptide inhibition assay (F1-peptide displacement on T2 cells). The settings on record: discussion; '8- to 30-fold, respectively'.
The subject of assay [2] is CD8+ T cells (IFNγ production). Put plainly: IFNγ ELISpot of peptide-induced CD8+ T cells. It is filed as cell-based, human. The settings on record: normal donors, two rounds of stimulation, 24 h on ELISpot plate. As to the method:
Figure 5 Production of IFNγ by CD8^+ T cells was induced in response to MUC1 peptides. Following two rounds of stimulation, CD8^+ cells were maintained for 24 h on an ELISpot plate. Spot numbers were determined using computer assisted video image analysis by Zellnet Consulting Inc. There were no significance differences compared to the negative peptide (p > 0.05).
IFNγ ELISpot plates from Mabtech (Stockholm, Sweden) were used to detect IFNγ producing MUC1-specific CTLs. The assay was performed using the capture IFNγ antibody as recommended by the manufacturer. Day five post R2-stimulation, the CTLs were washed three times and 1 × 10^5 cells were transferred to the washed and blocked IFNγ ELISpot plates and incubated at 37 °C in a 5% CO2 incubator for 24 h. After incubation the plates were washed with PBS, incubated with alkaline phosphatase-conjugated IFNγ antibody at room temperature for two hours and then spots were detected with BCIP/NBT substrate. Spot numbers were determined using computer assisted video image analysis by Zellnet Consulting Inc. (Fort Lee, NJ, USA).

Assay [3] deals with MCF-7 cells (MUC1+, HLA-A*0201+). The assay can be described thus: 51Cr-release assay, peptide-induced CTLs from normal donors. It is filed as cell-based, human.
Description: PBLs underwent two rounds of stimulation and sorted CD8^+ T cells were subjected to a ^51Cr-release assay.
PBMCs (2 × 10^6 cells/mL of AIM V medium) were transferred to a 24-well plate and incubated for 2 h at 37 °C. Non-adherent lymphocytes were washed off with PBS and the adherent cells were cultured in X-VIVO medium containing GM-CSF (1000 U/mL) and IL-4 (1000 U/mL) to generate DCs. On day four, the DCs were washed with PBS and pulsed for 2 h with the specific MUC1 peptide (50 μg/mL) (Table 1) and PADRE peptide (10 μg/mL) along with recombinant β2-microglobulin (3 μg/mL) in freshly prepared X-VIVO medium (1 mL per well) containing GM-CSF (1000 U/mL) and IL-4 (1000 U/mL). Lipopolysaccharide (LPS) at 1 μg/mL and tumor necrosis factor-α (TNFα) at 10 ng/mL were added to the peptide-pulsed DCs for 48 h to mature the DCs. […] For the first stimulation (R1 stimulation), PBMCs (2 × 10^6 cells/mL of T cell medium per well) were transferred to the irradiated and washed peptide-pulsed mature DCs at a stimulator to responder ratio of 1:10 in the presence of IL-7 (10 ng/mL). […] After three days, IL-2 at 1 ng/mL was added and refreshed every three days. On day 12 post R1 stimulation, CD8^+ T cells were sorted using CD8 microbeads (Miltenyi, Sunnyvale, CA, USA) as per the manufacturer’s protocol. […] Five to seven days later, T cells were analyzed for cytolytic activity by ^51Cr-release assay and interferon gamma production by ELISPOT.
The lytic activity of the in vitro stimulated peptide-specific CTLs was measured by a standard six-hour ^51Cr-release assay. […] After incubation, 30 μL of supernatant was transferred onto LUMA plates (Perkin Elmer, Waltham, MA, USA) and radioactive ^51Cr release was measured in a Topcount Micro-scintillation Counter (Packard Biosciences, Shelton, CT, USA). Percent specific lysis was calculated according to the following formula: Percent specific lysis = (experimental cpms − spontaneous cpms)/(complete cpms − spontaneous cpms) × 100. […]

For the substance “SLAPT(Tn)VHNV [P4, glycosylated anchor-optimized MUC1 peptide]”, in assay [1], the “Patients responding with >2-fold increase in proliferation” value is 10/23. In addition, the “Fold higher affinity than the known M1.1 and M1.2 MUC1 peptides” value at HLA-A*0201 molecules was 8 fold. For the same substance, the “IFNγ production by CD8+ T cells generated to the peptide” value in assay [2] is given as “showed production of IFNγ”. Also, in assay [3] (8 normal post-menopausal HLA-A*0201 women, E:T 100:1, 6 h, p = 0.008 vs negative control P11), the “Lysis of MCF-7 cells by CTLs elicited with the peptide” value was “significant lysis”. Besides, in assay [3] (based on considering 30% cell kill a response), the “Percent of donors that will respond (lower limit of 95% CI)” value is “at least 35%”. For the same substance, in assay [3] (normal donors (n = 8), MCF-7 targets, E:T 100:1, 30% cell kill considered a response), the “% of Donors with at Least 30% Cell Kill” value is recorded as 75%.
